Experimental findings from patent US20230303613A1, “3′3′ CYCLIC DINUCLEOTIDES WITH AN ALKENYLENE” (Institute of Organic Chemistry and Biochemistry AS CR, v.v.i, priority 2020, published 2023) are described below.

The assay addresses WT STING (Homo sapiens, UniProt Q86WV6, H232R). Kind of assay: 293T WT STING standard reporter assay. Format: cell-based. As to conditions: 293T wtSTING-FL cells; 7 hours with compound, no digitonin; ISRE firefly luciferase reporter. The source says:
Two complementary oligonucleotides of the sequence […] […] […] […] […] The oligonucleotides were mixed in equal molar amounts, hybridized, and cleaved by restriction endonucleases HindIII (cat. #. R0104S, NEB, Ipswich, USA) and BglII (cat. # R0144S, NEB, Ipswich, USA). Ultimately, they were ligated into plasmid pGL4.27 (cat. # E6651, Promega, Madison, USA) linearized with the same enzymes. As result the sequence with four ISRE sites was placed upstream of the minimum promoter of firefly luciferase reporter gene.
After 5 minutes incubation at room temperature (RT), 250 µL of the mixture was added dropwise to the cells in one well. Cells were incubated 36 hours at 37° C. with 5% CO2, and then detached with 0.05% Trypsin and 0.22 g/L EDTA (both cat. # L0941, Biowest, Riverside, USA).
Transfected cells were seeded onto poly-D-lysine coated six well plates at density 50,000 cells per 1 cm^2 in DMEM medium with high glucose containing 10% heat inactivated FBS, 30 µg/mL blasticidin (cat. # ant-bl-05, InvivoGen, San Diego, USA), 0.06 mg/ml Penicillin G and 0.1 mg/ml Streptomycin Sulfate (both cat. #. L0018, Biowest, Riverside, USA). The medium was replenished every 3 - 4 days until visible colonies of cells resistant to blasticidin were formed.
Blasticidin resistant cells stably expressing WT STING were further transfected with […] plasmid following the same procedure as described above. […] Homogeneous culture of stably double transfected cells was prepared by limiting dilution of cells in 96 well plates and wells with cells were selected that originated from a single cell.
The medium was removed next day and three-fold serial dilutions of compounds in 100 µl medium were added to the cells. The plates with cells were incubated for 7 hours at 37° C. with 5% CO2. After 50 µl of the medium was removed, 30 µl of ONE-Glo^Tm Luciferase Assay System reagent (cat. # E6120, Promega, Madison, USA) was added to each well and luminescence was read on Synergy H1 (Biotek, Winooski, USA).

pEC50: −log10 of the molar value.

Chain of WT STING (Q86WV6 whole entry H232R): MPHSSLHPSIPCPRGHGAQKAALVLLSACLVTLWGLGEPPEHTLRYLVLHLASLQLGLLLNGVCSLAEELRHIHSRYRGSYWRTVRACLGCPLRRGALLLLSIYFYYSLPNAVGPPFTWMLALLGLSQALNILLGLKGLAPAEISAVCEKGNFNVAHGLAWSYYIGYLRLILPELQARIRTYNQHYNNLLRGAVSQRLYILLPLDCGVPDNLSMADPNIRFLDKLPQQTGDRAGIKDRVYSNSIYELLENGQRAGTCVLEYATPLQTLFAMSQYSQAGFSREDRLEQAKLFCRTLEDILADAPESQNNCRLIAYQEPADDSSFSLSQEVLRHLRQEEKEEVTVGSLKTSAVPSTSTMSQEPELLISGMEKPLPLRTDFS

One may read the pEC50 as the EC50 on a negative log10 scale, so that one unit is a factor of ten. As for `CCCCCCCC(=O)OCOP1(=O)/C=C/[C@H]2O[C@@H](n3cnc4c(N)ncnc43)[C@H](F)[C@@H]2OP(=O)(OCOC(=O)CCCCCCC)OC[C@H]2O[C@@H](n3cnc4c(N)ncnc43)[C@H](F)[C@@H]2O1` (single isomer, unassigned) [Compound 83a], the negative-log EC50 (pEC50) was 7.64.
`CC(C)OC(=O)OCOP1(=O)/C=C/[C@H]2O[C@@H](n3cnc4c(N)ncnc43)[C@H](F)[C@@H]2OP(=O)(OCOC(=O)OC(C)C)OC[C@H]2O[C@@H](n3cnc4c(N)ncnc43)[C@H](F)[C@@H]2O1` (stereo partly drawn) [Compound 81a, {[(1R,6R,8R,9R,10R,13E,15R,17R,18R)-8,17-bis(6-amino-9H-purin-9-yl)-9,18-difluoro-3,12-dioxo-3-({[(propan-2-yloxy)carbonyl]oxy}methoxy)-2,4,7,11,16-pentaoxa-3λ^5,12λ^5-diphosphatricyclo[13.3.0.0^6,^10]octadec-13-en-12-yl]oxy}methyl propan-2-yl carbonate]: the pEC50 is 5.02.
As to `CC(C)(C)C(=O)OCOP1(=O)/C=C/[C@H]2O[C@@H](n3cnc4c(N)ncnc43)C[C@@H]2OP(=O)(OCOC(=O)C(C)(C)C)OC[C@H]2O[C@@H](n3cnc4c(N)ncnc43)[C@H](F)[C@@H]2O1` (single isomer, unassigned) [Compound 87a], the pEC50 was 4.92.
For `CCC(C)(C)C(=O)OCOP1(=O)/C=C/[C@H]2O[C@@H](n3cnc4c(N)ncnc43)[C@H](F)[C@@H]2OP(=O)(OCOC(=O)C(C)(C)CC)OC[C@H]2O[C@@H](n3cnc4c(N)ncnc43)[C@H](F)[C@@H]2O1` (single isomer, unassigned) [Compound 84a], the pEC50 was 6.82.
Next, “{[(1R,6R,8R,9R,10R,13E,15R,17R,18R)-8,17-bis(6-amino-9H-purin-9-yl)-9,18-difluoro-3,12-dioxo-3-({[(propan-2-yloxy)carbonyl]oxy}methoxy)-2,4,7,11,16-pentaoxa-3λ^5,12λ^5- diphosphatricyclo[13.3.0.0^6,^10]octadec-13-en-12-yl]oxy}methyl propan-2-yl carbonate [Compound 81b]”: 5.92; `CC1(C(=O)OCOP2(=O)/C=C/[C@H]3O[C@@H](n4cnc5c(N)ncnc54)[C@H](F)[C@@H]3OP(=O)(OCOC(=O)C3(C)CCCCC3)OC[C@H]3O[C@@H](n4cnc5c(N)ncnc54)[C@H](F)[C@@H]3O2)CCCCC1` (single isomer, unassigned) [Compound 82b]: 7.10.
In the case of `CC(C)(C)C(=O)OCOP1(=O)/C=C/[C@H]2O[C@@H](n3cnc4c(N)ncnc43)[C@H](F)[C@@H]2OP(=O)(OCOC(=O)C(C)(C)C)OC[C@H]2O[C@@H](n3cnc4c(N)ncnc43)[C@H](F)[C@@H]2O1` (single isomer, unassigned) [Compound 80b], the pEC50 was 7.66.
Regarding `CCCCCCCC(=O)OCOP1(=O)/C=C/[C@H]2O[C@@H](n3cnc4c(N)ncnc43)[C@H](F)[C@@H]2OP(=O)(OCOC(=O)CCCCCCC)OC[C@H]2O[C@@H](n3cnc4c(N)ncnc43)[C@H](F)[C@@H]2O1` (single isomer, unassigned) [Compound 83b], the pEC50 was 8.52.
Consider `CC(C)(C)C(=O)OCOP1(=O)/C=C/[C@H]2O[C@@H](n3cnc4c(N)ncnc43)C[C@@H]2OP(=O)(OCOC(=O)C(C)(C)C)OC[C@H]2O[C@@H](n3cnc4c(N)ncnc43)[C@H](F)[C@@H]2O1` (single isomer, unassigned) [Compound 87b], for which the negative logarithm of the EC50 (pEC50) was 6.17.
In the case of `CC(C)(C)C(=O)OCOP1(=O)/C=C/[C@H]2O[C@@H](n3cnc4c(N)ncnc43)C[C@@H]2OP(=O)(OCOC(=O)C(C)(C)C)OC[C@H]2O[C@@H](n3cnc4c(N)ncnc43)[C@H](F)[C@@H]2O1` (single isomer, unassigned) [Compound 87c], the negative-log EC50 (pEC50) was 6.59.
For `CC1(C(=O)OCOP2(=O)/C=C/[C@H]3O[C@@H](n4cnc5c(N)ncnc54)[C@H](F)[C@@H]3OP(=O)(OCOC(=O)C3(C)CCCCC3)OC[C@H]3O[C@@H](n4cnc5c(N)ncnc54)[C@H](F)[C@@H]3O2)CCCCC1` (single isomer, unassigned) [Compound 82a], the pEC50 is 6.70.
